Patent publication US10287328B2, “Treatment of diabetes, toll-like receptor 4 modulators and methods for using the same” (KeMyth Biotech Co., Ltd., priority 2016, dated 2019)

Columns and labels:
[1] = test system: neointima formation of aorta; assay: Neointima formation of aorta (HE stain) in STZ-treated HFD-fed rats; type: in vivo
Experimental: The ascending part of aorta were taken from mice, including control health mice and HFD induced diabetic mice, with and without treatment of C70PLY4, and kept in 10% formalin buffered for 24 h. The specimens were routinely embedded in paraffin blocks and cut in transversal sections (3 μm). The slides were stained with hematoxylin and eosin. The specimens were analyzed with light microscope.
The present study determined if C70PLY4 attenuates the status of atherosclerosis in HFD-fed rats.

TLR4 = assay: LPS-induced PMN transendothelial migration, PMNs from wild type C3H/HeN mice; type: cell-based
Experimental: To obtain mice neutrophils from TLR4-deficient [TLR4(−/−)] C3H/HeJ mice and wild type C3H/HeN mice, inflammation was induced by 0.1 ml of uric acid solution into the peritoneal cavity of the mouse. The uric acid solution (noncrystalline form) was prepared by mixing with saline (10% [wt/vol]) and sonicated for 10 min. Immediately before inoculation, the milky white precipitated uric acid solution was shaken vigorously. Peritoneal exudate cells were harvested 4, 18, or 24 h after injection by two lavages of the peritoneal cavity with 5 ml of cold phosphate-buffered saline (PBS; total volume, 10 ml). Uric acid-induced peritoneal cells (UAPMN) were washed by centrifugation at 200×g for 10 min at 4° C. Followed by hypotonic lysis to eliminate red blood cells, centrifugation and an additional wash were performed. The cells were then resuspended in Krebs-Ringer phosphate buffer (KRG; pH 7.3). The numbers and populations of peritoneal exudate cells were determined by staining the nuclei with Turk reagent and by cytospin centrifugation followed by May-Grünwald-Giemsa staining, respectively. Uric acid injection into the peritoneal cavity gave a yield of 1 to 2×10^7 cells/mouse depending on time of incubation (4 hr). The levels of purity of the uric acid-induced PMN were 95% after 4 h postinjection. Viability of the isolated neutrophils exceeded 95% as determined by trypan blue exclusion. The PMN from TLR4(−/−) C3H/HeJ mice and wild type C3H/HeN mice were then used for PMN transmigration Assay.
Neutrophils from human were isolated blood that was drawn in a syringe containing preservative-free heparin (20 U/ml final), and mixed with an equal volume of PBS containing 3% dextran and then incubated for 20 min at room temperature. The leukocyte-rich plasma (upper layer) was collected and pellet cells was obtained from the plasma by centrifuge and resuspended in 0.9% NaCl. Layer 10 ml Ficoll-Hypaque solution beneath the cell suspension. After centrifuge 1500×g for 20 min, aspirate the Ficoll-Hypaque layer, leaving the neutrophil/RBC pellet. Cells were subjected to hypotonic lysis by resuspending each neutrophil/RBC pellet in cold 0.2% NaCl for 30 sec. At the end of this period, restore isotonicity by adding ice-cold 1.6% NaCl. After centrifuge, resuspend cells in ice-cold PBS/glucose buffer. Neutrophils from mice were isolated from the peritoneum as previously described. See, e.g., Rabes et al., Curr Top Microbiol Immunol 397:215-227 (2016). The cell concentration was adjusted to […]. The viability of the isolated neutrophils exceeded 95%, as determined by Trypan blue exclusion.
Transendothelial migration was performed by using a Transwell system. Transwell filters were pre-seeded with HUVEC monolayers for 24 hrs and transferred to clean 24-well plates. HUVECs were washed twice with DPBS, 500 μl of ECM was added to the Transwell filter compartment and 10^6 neutrophils were then added in upper chamber. Transendothelial migration was stimulated by addition of LPS to the lower chamber to a final concentration of 1 μg/ml. Cells were incubated with the endothelial cells for 1 h at 37° C. At the conclusion of the incubation, migrated cells were collected from the lower chamber and counted in a hemacytometer in triplicate. Percent PMN transmigration was calculated by dividing the number of PMN recovered from the lower chamber by the number of PMN initially added.
PMN transendothelial migration plays an important role in early stage of atherogenesis. […].

MD2/TLR4 interaction = MD2/TLR4 interaction (Homo sapiens, UniProt O00206); assay: In vitro protein competition binding assay for MD2/TLR4 interaction; conditions: MD2 50 nM
Experimental: The recombinant TLR4 protein was diluted in PBS (2 μg/mL) and immobilized on a 96-well (100 ng/well) ELISA plate by incubation at 37° C. for 2 h. The wells were washed three times with PBS, followed by blocking with the addition of 300 μL 5% BSA in PBS at ambient temperature overnight. Then, the plate was rewashed three times with PBST before performed competition binding assay. The binding of MD2 (50 nM) to TLR4 was competed by adding various amounts (2-fold serial dilution from 50 μM to 3.05 nM) of C70PLY4, N35PLY4, or M50PLY4 peptide, and the residual binding was examined using anti-MD2 and anti-mouse-IgG-HRP antibodies diluted in 1% BSA as described in herein.

[2] = test system: ERK1/2 and NFκB-p65 subunit phosphorylation; assay: Western blot of LPS-induced ERK1/2 and NFκB-p65 phosphorylation in HUVECs; type: cell-based, human; conditions: LPS 1 μg/mL plus C70PLY4 100, 300 and 500 nM, 24 h
Experimental: Cells were kept as the control, treated with LPS (1 μg/mL), or co-treated with LPS (1 μg/mL) and C70PLY4 (100, 300, and 500 nM) for 24 h and the phosphorylation of ERK1/2 and NFκB-p65 subunit were determined by Western blot. Cells were collected by scraping and lysed with RIPA buffer containing 1% NP-40, 0.5% sodium deoxycholate, 0.1% SDS, and a protease inhibitor mixture (PMSF, aprotinin, and sodium orthovanadate). The total cell lysate (50 μg of protein) was separated by SDS-polyacrylamide gel electrophoresis (PAGE) (10% running, 4% stacking) and transferred onto a polyvinylidene fluoride membrane (Immobilon P, 0.45-μm pore size). The membrane was then incubated with the designated antibodies. Immunodetection was performed by using the Western-Light chemiluminescent detection system (Applied Biosystems, Foster City, Calif.).
The present study determined if C70PLY4 inhibits LPS-induced signaling, including protein ERK1/2 and NFκB-p65 subunit, in the human umbilical vein endothelial cells (HUVECs) by using western blot assay (FIG. 14, panel A). The cells were kept as control, treated with LPS (1 μg/mL) only for 24 h, or co-treated with LPS (1 μg/mL) and C70PLY4 (100, 300, and 500 nM) for 24 h and the protein phosphorylation of ERK1/2 and NFκB-p65 subunit were examined.

Chain of MD2/TLR4 interaction (O00206 24-631): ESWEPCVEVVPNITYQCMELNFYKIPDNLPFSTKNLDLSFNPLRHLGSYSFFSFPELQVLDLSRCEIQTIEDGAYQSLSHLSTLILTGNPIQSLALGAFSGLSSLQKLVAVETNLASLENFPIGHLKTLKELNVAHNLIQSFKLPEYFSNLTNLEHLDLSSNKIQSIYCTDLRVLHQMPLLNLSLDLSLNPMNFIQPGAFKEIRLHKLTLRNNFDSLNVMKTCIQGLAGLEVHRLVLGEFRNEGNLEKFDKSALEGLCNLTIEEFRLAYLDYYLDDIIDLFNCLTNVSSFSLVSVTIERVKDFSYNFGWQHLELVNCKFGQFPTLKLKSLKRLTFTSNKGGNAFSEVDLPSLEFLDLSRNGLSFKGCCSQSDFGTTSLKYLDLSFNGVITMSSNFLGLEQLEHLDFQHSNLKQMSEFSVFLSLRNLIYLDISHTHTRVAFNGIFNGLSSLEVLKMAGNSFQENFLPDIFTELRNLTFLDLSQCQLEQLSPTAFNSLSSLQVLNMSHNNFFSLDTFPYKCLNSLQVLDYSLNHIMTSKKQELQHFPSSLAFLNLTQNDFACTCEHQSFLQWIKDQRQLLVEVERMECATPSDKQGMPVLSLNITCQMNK

QDLTAHFTTSIPLKGNVRNLSVKIRECTGLAWEWWRTVYEKTDLPLVRKRTISIWGTTLYPQVEDKVEND [C70PLY4]
neointima formation of aorta induced by STZ [1]: significantly attenuated the status of neointima formation
PMNs migration, WT mice model (FIG. 10) (TLR4; PMNs from C3H/HeN mice, LPS 1 μg/ml, HUVEC monolayer Transwell): significant inhibition of PMNs cell migration
LPS induced PMN migration (FIGS. 11-12) (TLR4; WT mice model, LPS-induced): inhibitory effects
concentration at which MD2 protein is completely competed away (MD2/TLR4 interaction; TLR4-coated well): 6.25 µM
blocking capability for MD2 and TLR4 protein interaction (in words) (MD2/TLR4 interaction; peptide 50 μM to 3.05 nM): dose-dependent blocking capability
LPS-induced ERK1/2 phosphorylation [2]: significantly inhibited
LPS-induced NFκB-p65 subunit phosphorylation [2]: significantly inhibited
